Measured values reported in ChEMBL document CHEMBL1144305, “Benzimidazole derivatives as novel nonpeptide luteinizing hormone-releasing hormone (LHRH) antagonists. Part 2: Benzimidazole-5-sulfonamides” (Bioorg Med Chem Lett, 2005).

What was measured:
[1] = biological target: T1, Gonadotropin-releasing hormone receptor (Rattus norvegicus, UniProt P30969); test: Inhibitory concentration towards rat leutinizing releasing hormone receptor
T1 sequence (P30969 whole entry): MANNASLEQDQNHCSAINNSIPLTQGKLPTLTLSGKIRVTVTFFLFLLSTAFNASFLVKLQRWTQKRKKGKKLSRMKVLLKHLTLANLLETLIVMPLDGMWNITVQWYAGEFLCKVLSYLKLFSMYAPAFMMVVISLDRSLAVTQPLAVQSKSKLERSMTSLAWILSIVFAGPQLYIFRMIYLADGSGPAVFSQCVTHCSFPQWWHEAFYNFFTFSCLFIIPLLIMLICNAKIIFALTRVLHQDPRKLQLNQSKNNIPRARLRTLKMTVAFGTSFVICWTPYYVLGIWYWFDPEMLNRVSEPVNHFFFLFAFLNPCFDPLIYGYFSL

[2] = biological target: T2, Gonadotropin-releasing hormone receptor (Homo sapiens, UniProt P30968); test: Inhibitory concentration towards human leutinizing releasing hormone receptor
T2 sequence (P30968 whole entry): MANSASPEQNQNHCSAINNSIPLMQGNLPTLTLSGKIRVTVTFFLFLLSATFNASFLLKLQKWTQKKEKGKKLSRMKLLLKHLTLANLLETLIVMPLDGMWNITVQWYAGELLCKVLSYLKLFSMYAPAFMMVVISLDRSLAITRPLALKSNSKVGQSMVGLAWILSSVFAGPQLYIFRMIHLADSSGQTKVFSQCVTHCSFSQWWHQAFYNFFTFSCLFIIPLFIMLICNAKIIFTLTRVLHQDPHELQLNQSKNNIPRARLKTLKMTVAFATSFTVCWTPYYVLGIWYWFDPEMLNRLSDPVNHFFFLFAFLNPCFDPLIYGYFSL

SMILES	IC50 [1] [µM]	IC50 [2] [µM]
O=S(=O)(NCc1ccc(F)cc1)c1ccc2c(c1)nc(C1CC1)n2Cc1ccccc1	1.6	1.9
O=C(NCCc1nc2cc(S(=O)(=O)NCc3ccc(F)cc3)ccc2n1Cc1ccccc1)Nc1ccccc1Cl	0.05	0.083
CC(C)c1nc2cc(S(=O)(=O)NCc3ccc(F)cc3)ccc2n1Cc1ccccc1	0.69	0.39
CC(C)(C)OC(=O)NCCc1nc2cc(S(=O)(=O)NCc3ccc(F)cc3)ccc2n1Cc1ccccc1	0.54	0.74
CC(C)(C)NC(=O)NCCc1nc2cc(S(=O)(=O)NCc3ccc(F)cc3)ccc2n1Cc1ccccc1	0.012	0.02
O=C(NCCc1nc2cc(S(=O)(=O)NCc3ccc(F)cc3)ccc2n1Cc1ccccc1)Nc1ccccc1F	0.053	0.066
CCNC(=O)NCCc1nc2cc(S(=O)(=O)NCc3ccc(F)cc3)ccc2n1Cc1ccccc1	0.38	0.69
CC(C)(C)NC(=O)NCCc1nc2cc(S(=O)(=O)NCc3ccc(F)c(F)c3)ccc2n1Cc1ccccc1	0.11	0.17
COc1ccc(CNS(=O)(=O)c2ccc3c(c2)nc(CCNC(=O)NC(C)(C)C)n3Cc2ccccc2)cc1	0.2	0.34
CC(C)(C)NC(=O)NCCc1nc2cc(S(=O)(=O)NCc3ccc(Cl)cc3)ccc2n1Cc1ccccc1	0.0039	0.0042
CC(C)(C)NC(=O)NCCc1nc2cc(S(=O)(=O)NCc3ccc(Cl)cc3Cl)ccc2n1Cc1ccccc1	0.014	0.022
CCCc1nc2cc(S(=O)(=O)NCc3ccc(F)cc3)ccc2n1Cc1ccccc1	> 10	> 10
NCCc1nc2cc(S(=O)(=O)NCc3ccc(F)cc3)ccc2n1Cc1ccccc1	> 10	> 10
CC(C)(C)CNC(=O)NCCc1nc2cc(S(=O)(=O)NCc3ccc(F)cc3)ccc2n1Cc1ccccc1	0.03	0.11
CC(C)(C)NC(=O)NCCc1nc2cc(S(=O)(=O)NCc3ccccc3F)ccc2n1Cc1ccccc1	0.45	0.75
CC(C)NC(=O)NCCc1nc2cc(S(=O)(=O)NCc3ccc(F)cc3)ccc2n1Cc1ccccc1	0.079	0.15
CC(C)(C)NC(=O)NCCc1nc2cc(S(=O)(=O)NCc3ccccc3)ccc2n1Cc1ccccc1	0.31	0.49
CC(C)(C)NC(=O)NCCc1nc2cc(S(=O)(=O)NCc3ccc(C(F)(F)F)c(F)c3)ccc2n1Cc1ccccc1	0.051	0.057
CC(C)(C)CC(=O)NCCc1nc2cc(S(=O)(=O)NCc3ccc(F)cc3)ccc2n1Cc1ccccc1	0.84	2.6
CC(C)(C)NC(=O)NCCCc1nc2cc(S(=O)(=O)NCc3ccc(F)cc3)ccc2n1Cc1ccccc1	0.083	0.18
CC(C)(C)NC(=O)CCCc1nc2cc(S(=O)(=O)NCc3ccc(F)cc3)ccc2n1Cc1ccccc1	0.23	0.4
